Laboratory results: ChEMBL document CHEMBL3785074, “Molecular modeling and snake venom phospholipase A2 inhibition by phenolic compounds: Structure-activity relationship” (Eur J Med Chem, 2016)

Experiments:
[1] = Lipophilicity, log P of compound; type: physicochemical; details: octanol/water; read-out: logP
[2] = Protective activity against Daboia russellii venom-induced mortality by measuring venom LD50 in Swiss albino mouse at 6 mmol, iv preincubated with venom for 1 hr followed by administration to mouse measured after 24 hrs (reference value: 2.28 ug); type: functional, Daboia russelii
[3] = Protective activity against Daboia russellii venom-induced mortality in Swiss albino mouse at 6 mmol, iv preincubated with venom for 1 hr followed by administration to mouse measured after 24 hrs relative to untreated control; type: functional, Daboia russelii
[4] = Protective activity against Naja kaouthia venom-induced mortality in Swiss albino mouse at 6 mmol, iv by measuring venom LD50 preincubated with venom for 1 hr followed by administration to mouse measured after 24 hrs (reference value: 2.82 ug); type: functional
[5] = Protective activity against Naja kaouthia venom-induced mortality in Swiss albino mouse at 6 mmol, iv preincubated with venom for 1 hr followed by administration to mouse measured after 24 hrs relative to untreated control; type: functional
[6] = Protective activity against Daboia russellii venom-induced hemorrhage in intradermally dosed Swiss albino mouse at 6 mmol assessed as hemorhagic lesion by measuring minimal […] dose preincubated with venom for 1 hr followed by administration to mouse measured after 24 hrs (reference value: 5 ug); type: functional, Daboia russelii
[7] = Protective activity against Daboia russellii venom-induced hemorrhage in intradermally dosed Swiss albino mouse at 6 mmol assessed as hemorhagic lesion preincubated with venom for 1 hr followed by administration to mouse measured after 24 hrs relative to untreated control; type: functional, Daboia russelii
[8] = Protective activity against Daboia russellii venom-induced mortality in Swiss albino mouse at 6 mmol, iv by measuring venom LD50 administered immediately after venom injection measured after 24 hrs (reference value: 2.28ug); type: functional, Daboia russelii
[9] = Protective activity against Daboia russellii venom-induced mortality in Swiss albino mouse at 6 mmol, iv administered immediately after venom injection measured after 24 hrs relative to untreated control; type: functional, Daboia russelii
[10] = Protective activity against Naja kaouthia venom-induced mortality in Swiss albino mouse at 6 mmol, iv by measuring venom LD50 administered immediately after venom injection measured after 24 hrs (reference value: 2.82 ug); type: functional
[11] = Protective activity against Naja kaouthia venom-induced mortality in Swiss albino mouse at 6 mmol, iv administered immediately after venom injection measured after 24 hrs relative to untreated control; type: functional
[12] = Protective activity against Daboia russellii venom-induced hemorrhage in Swiss albino mouse at 6 mmol, iv assessed as hemorhagic lesion by measuring […] administered immediately after venom injection measured after 24 hrs (Rvb =5 ug); type: functional, Daboia russelii
[13] = Protective activity against Daboia russellii venom-induced hemorrhage in Swiss albino mouse at 6 mmol, iv assessed as hemorhagic lesion administered immediately after venom injection measured after 24 hrs relative to untreated control; type: functional, Daboia russelii

COc1ccc(C(=O)O)c(O)c1 [4-METHOXYSALICYLIC ACID]
logP [1]: 1.21 | LD50 [2]: 22 µg | fold change (FC) [3]: 9.8 | LD50 [4]: 9 µg | fold change (FC) [5]: 3.2 | MHC [6]: 20 µg | fold change (FC) [7]: 4 | LD50 [8]: 150 µg | fold change (FC) [9]: 3.75 | LD50 [10]: 10 µg | fold change (FC) [11]: 2 | MHC [12]: 10 µg | fold change (FC) [13]: 2
